The text below walks through data of patent US8287923B2, “Compositions and methods for treating immune disorders” (priority 2005, dated 2012).

Holding throughout (type): cell-based, human
In series [1] the test system is NHEK. The series can be described thus: Semi-quantitative RT-PCR of SS-A/Ro and SS-B/La mRNA. The settings on record: 100 uM EGCG, different times. Here is the method: (§1) Cell treatment: ECCG was dissolved in cell culture media as a 50 mM stock immediately before use. Exponentially growing NS-SV-AC cells were incubated with 100 μM ECCG for various time periods in the growth media described above, and then were either extracted for total RNA or cell lysates prior to RT-PCR or Western blots.
(§2) Total RNA was extracted using an RNeasy total RNA isolation system (QIAGEN, Valentia, Calif.) RT reactions and PCR reactions were performed according to the manufacturer's protocol (Super Array Bioscience Corp). For amplification, the following pair of primers was used,
(§3) Amplification was started by heating for 1.5 min at 94° C., followed by 30 cycles for 52 kD SSA/Ro. 25 cycles for GAPDH and 25 cycles for SSB/La, each cycle consisting of 15
(§4) second at 94° C., 30 seconds at 57.3° C., and 1 min at 72° C. A final extension was performed at 72° C. for 5 min prior to gel analysis.
(§5) To further test this possibility, three cell types, NHEK, NS-SV-AC (an SV40 immortalized cell line derived from human submandibular acinar cells) and OC2 cells (derived from an oral squamous cell carcinoma) were treated with 100 uM EGCG for different times. A semi-quantitative estimate of SS-A/Ro and SS-B/La mRNA levels was then obtained by RT-PCR during the exponential period of amplification. GAPDH was used as a housekeeping gene control.

Series [2] deals with NS-SV-AC cells. Described as above. The settings on record: 100 uM EGCG, different times. The protocol:
as §1, §2, §3, §4, §5

In series [3] the test system is NS-SV-AC cells. As to the kind of experiment: TNF-α-induced cytotoxicity, MTT assay. The settings on record: dose-dependent; 100 ng/ml TNFα, 24 hr; p<0.05. Here is the method:
TNF-α cyotoxicity: NS-SV-AC cells (0.5×10<4> cells/well) were seeded in a 96-well microplate and either treated for 24 hr with EGCC as described above (or not treated in the control), in the presence of 100 ng/ml TNFα and 10 μg/ml cyclohexamide. After the treatments, viability was determined by the MTT assay. The cells in each well were washed with 200 μl of phosphate-buffered saline (PBS) and incubated with 100 μl of 2% (w/v) MTT in a solution of 0.05 M Tris-HCl (pH 7.6), 0.5 mM MgCl2, 2.5 mM CoCl2 and 0.25 M disodium succinate at 37° C. for 30 min. Cells were fixed by the addition of 100 μl of 4% (v/v) formalin in 0.2 M Tris-HCl (pH 7.6), and after a 5 min incubation at room temperature liquid was removed and the wells were allowed to dry. Each well was rinsed with 200 μl water and cells were solubilized by the addition of 100 μl of 6.35% (v/v) 0.1 N NaOH in DMSO. The colored formazan product was measured by a Thermo MAX micro plate reader (Molecular Devices Corp. Sunnyvale, Calif.) at a wavelength of 562 nm.
We examined the effects of EGCG on TNF-α-induced cytotoxicity of the human salivary gland acinar cell line NS-SV-AC using the MTT assay.
To examine the role of activation of the p38 signaling pathway in reducing TNF-α-induced cytotoxicity, cells were exposed to TNF-[alpha] and EGCG in the presence of either the p38 MAPK inhibitor SB203580 or the MEK inhibitor PD98059.
On the technique in general: Tetrazolium dyes change colour on reduction, which living cells bring about.

On to `O=C(O[C@@H]1Cc2c(O)cc(O)cc2O[C@@H]1c1cc(O)c(O)c(O)c1)c1cc(O)c(O)c(O)c1` [EGCG, (−)-epigallocatechin-3-gallate], for which the “SS-B/La mRNA level” value in series [1] was “decreased progressively and substantially”; in series [2], “decreased progressively and substantially”. Also, the “protection from TNFα-induced cytotoxicity” value in series [3] is given as “up to 50%”.
